Results from PMC7491124, “Studies on sugar transporter CRT1 reveal new characteristics that are critical for cellulase induction in Trichoderma reesei” (Biotechnology for Biofuels, 2020).

Key:
Type in all cases: cell-based
CDT-2 = molecular target: T1, CDT-2 (Neurospora crassa, UniProt Q7SD12); experiment: radiolabelled lactose uptake in yeast, […] min; conditions: labelled compound; 5 mM lactose, pH 6.5, 28 °C
T1 construct: full-length; PGK1 promoter, centromeric plasmid in S. cerevisiae co-expressing N. crassa GH1-1
T1 sequence (Q7SD12 1-525): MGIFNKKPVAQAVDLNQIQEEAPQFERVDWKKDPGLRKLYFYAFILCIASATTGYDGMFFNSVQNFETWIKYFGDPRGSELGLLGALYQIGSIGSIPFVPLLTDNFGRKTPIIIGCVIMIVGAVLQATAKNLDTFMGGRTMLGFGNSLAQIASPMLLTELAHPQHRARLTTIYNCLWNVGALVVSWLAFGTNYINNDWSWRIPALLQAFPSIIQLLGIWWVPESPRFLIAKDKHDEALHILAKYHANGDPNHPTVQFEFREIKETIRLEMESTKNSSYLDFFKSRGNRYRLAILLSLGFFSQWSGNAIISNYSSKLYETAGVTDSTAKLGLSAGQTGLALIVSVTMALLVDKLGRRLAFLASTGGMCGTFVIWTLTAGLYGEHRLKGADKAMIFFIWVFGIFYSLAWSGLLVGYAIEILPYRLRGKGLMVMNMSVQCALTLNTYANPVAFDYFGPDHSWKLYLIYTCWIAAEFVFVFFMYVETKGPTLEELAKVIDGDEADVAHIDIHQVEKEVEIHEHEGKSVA

CRT1-RUT-C30 [1] = molecular target: T2, CRT1-RUT-C30 (Trichoderma reesei, UniProt G0RGH7); experiment: radiolabelled sugar uptake in yeast; conditions: labelled compound; zero-trans uptake, 100 mM potassium phosphate pH 6.5, 28 °C
T2 construct: gene TRIREDRAFT_3405; full-length RUT-C30 version with longer N-terminus; codon-optimized synthetic gene, PGK1 promoter, centromeric plasmid in S. cerevisiae co-expressing N. crassa GH1-1
T2 sequence (G0RGH7 entry or part of it): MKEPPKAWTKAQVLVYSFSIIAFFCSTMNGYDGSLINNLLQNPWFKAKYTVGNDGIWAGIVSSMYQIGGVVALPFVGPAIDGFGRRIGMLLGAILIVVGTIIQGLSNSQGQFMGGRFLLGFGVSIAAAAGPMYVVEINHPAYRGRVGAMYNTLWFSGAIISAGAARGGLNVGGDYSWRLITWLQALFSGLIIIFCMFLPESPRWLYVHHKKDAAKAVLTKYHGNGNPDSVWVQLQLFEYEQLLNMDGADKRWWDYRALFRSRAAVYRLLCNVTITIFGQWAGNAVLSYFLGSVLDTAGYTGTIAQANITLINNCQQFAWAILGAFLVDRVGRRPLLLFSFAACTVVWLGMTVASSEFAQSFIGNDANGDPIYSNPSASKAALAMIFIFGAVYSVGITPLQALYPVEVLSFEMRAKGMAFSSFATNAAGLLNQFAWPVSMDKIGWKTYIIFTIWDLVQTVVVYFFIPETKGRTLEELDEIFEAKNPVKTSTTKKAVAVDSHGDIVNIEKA

CRT1-RUT-C30 [2] = molecular target: T2, CRT1-RUT-C30; experiment: inhibition of labelled cellobiose uptake in yeast; conditions: 5 mM labelled cellobiose, 25 mM inhibitor; pH 6.5, 28 °C
CDT-1 = molecular target: T3, CDT-1 (Neurospora crassa, UniProt Q7SCU1); experiment: inhibition of labelled cellobiose uptake in yeast; conditions: 5 mM labelled cellobiose, 25 mM inhibitor; pH 6.5, 28 °C
T3 construct: full-length; PGK1 promoter, centromeric plasmid in S. cerevisiae co-expressing N. crassa GH1-1
T3 sequence (Q7SCU1 1-579): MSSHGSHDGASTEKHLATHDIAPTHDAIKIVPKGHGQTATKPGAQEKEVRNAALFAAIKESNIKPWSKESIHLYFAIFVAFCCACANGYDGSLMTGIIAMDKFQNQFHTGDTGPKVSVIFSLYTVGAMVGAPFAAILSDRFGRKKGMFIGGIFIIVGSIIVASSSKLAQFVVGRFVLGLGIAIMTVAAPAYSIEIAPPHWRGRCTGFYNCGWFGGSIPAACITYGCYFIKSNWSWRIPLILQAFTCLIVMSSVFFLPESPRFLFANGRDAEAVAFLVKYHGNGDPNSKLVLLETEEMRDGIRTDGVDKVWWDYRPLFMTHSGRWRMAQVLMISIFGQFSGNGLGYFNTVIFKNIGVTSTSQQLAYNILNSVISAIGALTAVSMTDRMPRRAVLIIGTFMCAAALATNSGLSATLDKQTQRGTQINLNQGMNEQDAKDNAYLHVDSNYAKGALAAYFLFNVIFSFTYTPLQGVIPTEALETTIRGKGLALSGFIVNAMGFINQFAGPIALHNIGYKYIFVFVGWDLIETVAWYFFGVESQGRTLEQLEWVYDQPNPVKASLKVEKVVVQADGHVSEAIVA

| SMILES | radiolabelled lactose uptake in yeast, 20 min (CDT-2) | Km (CRT1-RUT-C30 [1]) | % inhibition at 25 mM (CRT1-RUT-C30 [2]) | % inhibition at 25 mM (CDT-1) |
| --- | --- | --- | --- | --- |
| OC[C@H]1O[C@@H](O[C@H]2[C@H](O)[C@@H](O)C(O)O[C@@H]2CO)[C@H](O)[C@@H](O)[C@H]1O (some centres unmarked) [lactose] | higher lactose uptake was seen for the strains which expressed CDT-1, CDT-2 or CRT1-RUT-C30 | 62.9 ± 27.4 µM | – | – |
| OC[C@H]1O[C@@H](O[C@H]2[C@H](O)[C@@H](O)C(O)O[C@@H]2CO)[C@H](O)[C@@H](O)[C@@H]1O (some centres unmarked) [cellobiose] | – | 3.1 ± 0.7 µM | – | – |
| OC[C@H]1O[C@@H](O[C@H]2[C@H](O)[C@@H](O)[C@H](O[C@H]3[C@H](O)[C@@H](O)C(O)O[C@@H]3CO)O[C@@H]2CO)[C@H](O)[C@@H](O)[C@@H]1O (some centres unmarked) [cellotriose] | – | – | it was inhibited by cellobiose and to some extent by lactose and cellotriose | it was inhibited by cellobiose and to some extent by lactose and cellotriose |
